Reference: PubChem BioAssay (NCI)
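At the GI50, growth is halved. TGI: concentration producing complete growth inhibition.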

How the values were obtained:
Assay in all cases: NCI tumour cell line growth inhibition, 384-well format
MDA-MB-231 breast = tested on: MDA-MB-231 breast
K-562 leukemia = tested on: K-562 leukemia
KM12 colon = tested on: KM12 colon
SNB-75 CNS = tested on: SNB-75 CNS
UACC-257 melanoma = tested on: UACC-257 melanoma
PC-3 prostate = tested on: PC-3 prostate
MDA-MB-435 melanoma = tested on: MDA-MB-435 melanoma
NCI-H522 lung = tested on: NCI-H522 lung
HT29 colon = tested on: HT29 colon
786-0 renal = tested on: 786-0 renal
SK-OV-3 ovarian = tested on: SK-OV-3 ovarian
NCI/ADR-RES ovarian = tested on: NCI/ADR-RES ovarian
MDA-MB-468 breast = tested on: MDA-MB-468 breast
UO-31 renal = tested on: UO-31 renal
M14 melanoma = tested on: M14 melanoma
TK-10 renal = tested on: TK-10 renal
T-47D breast = tested on: T-47D breast
EKVX NSCLC = tested on: EKVX NSCLC
MALME-3M melanoma = tested on: MALME-3M melanoma
RPMI-8226 leukemia = tested on: RPMI-8226 leukemia
SF-295 CNS = tested on: SF-295 CNS
OVCAR-5 ovarian = tested on: OVCAR-5 ovarian
HCC-2998 colon = tested on: HCC-2998 colon
SR leukemia = tested on: SR leukemia
LOX IMVI melanoma = tested on: LOX IMVI melanoma
SN12C renal = tested on: SN12C renal
A498 renal = tested on: A498 renal
SK-MEL-5 melanoma = tested on: SK-MEL-5 melanoma
MOLT-4 leukemia = tested on: MOLT-4 leukemia
SF-268 CNS = tested on: SF-268 CNS
SK-MEL-28 melanoma = tested on: SK-MEL-28 melanoma
HOP-62 NSCLC = tested on: HOP-62 NSCLC
HS 578T breast = tested on: HS 578T breast
NCI-H23 lung = tested on: NCI-H23 lung
NCI-H322M lung = tested on: NCI-H322M lung
HL-60(TB) leukemia = tested on: HL-60(TB) leukemia
OVCAR-3 ovarian = tested on: OVCAR-3 ovarian
RXF 393 renal = tested on: RXF 393 renal
DU-145 prostate = tested on: DU-145 prostate
SNB-19 CNS = tested on: SNB-19 CNS
ACHN renal = tested on: ACHN renal
NCI-H460 NSCLC = tested on: NCI-H460 NSCLC
MCF7 breast = tested on: MCF7 breast
COLO 205 colon = tested on: COLO 205 colon
U251 glioblastoma = tested on: U251 glioblastoma
BT-549 breast = tested on: BT-549 breast
OVCAR-4 ovarian = tested on: OVCAR-4 ovarian
A549 NSCLC = tested on: A549 NSCLC
CAKI-1 renal = tested on: CAKI-1 renal
IGROV1 ovarian = tested on: IGROV1 ovarian
SF-539 CNS = tested on: SF-539 CNS
NCI-H226 lung = tested on: NCI-H226 lung
HOP-92 NSCLC = tested on: HOP-92 NSCLC
HCT-15 colon = tested on: HCT-15 colon
OVCAR-8 ovarian = tested on: OVCAR-8 ovarian
HCT-116 colon = tested on: HCT-116 colon

SMILES: Cc1c(C#N)cccc1-c1cc(-c2cn(Cc3cccc(C(C)(C)O)n3)nn2)nc(N)n1
- GI50 (MDA-MB-231 breast): 30500 nM
- TGI (MDA-MB-231 breast): > 100000 nM
- GI50 (K-562 leukemia): 25300 nM
- TGI (K-562 leukemia): > 100000 nM
- GI50 (KM12 colon): 334 nM
- TGI (KM12 colon): > 100000 nM
- GI50 (SNB-75 CNS): 53200 nM
- TGI (SNB-75 CNS): > 100000 nM
- GI50 (UACC-257 melanoma): 25700 nM
- TGI (UACC-257 melanoma): 79000 nM
- GI50 (PC-3 prostate): 29900 nM
- TGI (PC-3 prostate): > 100000 nM
- GI50 (MDA-MB-435 melanoma): 36000 nM
- TGI (MDA-MB-435 melanoma): > 100000 nM
- GI50 (NCI-H522 lung): 18300 nM
- TGI (NCI-H522 lung): 62400 nM
- GI50 (HT29 colon): 41100 nM
- TGI (HT29 colon): > 100000 nM
- GI50 ([…]-0 renal): 38200 nM
- TGI (786-0 renal): > 100000 nM
- GI50 (SK-OV-3 ovarian): 33800 nM
- TGI (SK-OV-3 ovarian): > 100000 nM
- GI50 (NCI/ADR-RES ovarian): 17500 nM
- TGI (NCI/ADR-RES ovarian): 44500 nM
- GI50 (MDA-MB-468 breast): 368 nM
- TGI (MDA-MB-468 breast): 28700 nM
- GI50 (UO-31 renal): 19000 nM
- TGI (UO-31 renal): 62500 nM
- GI50 (M14 melanoma): 57800 nM
- TGI (M14 melanoma): > 100000 nM
- GI50 (TK-10 renal): 24000 nM
- TGI (TK-10 renal): 96300 nM
- GI50 (T-47D breast): 15200 nM
- TGI (T-47D breast): 50900 nM
- GI50 (EKVX NSCLC): 32100 nM
- TGI (EKVX NSCLC): > 100000 nM
- GI50 (MALME-3M melanoma): 25200 nM
- TGI (MALME-3M melanoma): 96400 nM
- GI50 (RPMI-8226 leukemia): 14900 nM
- TGI (RPMI-8226 leukemia): 31500 nM
- GI50 (SF-295 CNS): 25600 nM
- TGI (SF-295 CNS): 95800 nM

SMILES: O=C(/C=C/c1cccnc1)NCCCCC1CCN(C(=O)c2ccccc2)CC1
- GI50 (MDA-MB-231 breast): < 10 nM
- TGI (MDA-MB-231 breast): < 10 nM
- GI50 (OVCAR-5 ovarian): < 10 nM
- TGI (OVCAR-5 ovarian): < 10 nM
- GI50 (HCC-2998 colon): < 10 nM
- TGI (HCC-2998 colon): < 10 nM
- GI50 (SR leukemia): < 10 nM
- TGI (SR leukemia): < 10 nM
- GI50 (KM12 colon): < 10 nM
- TGI (KM12 colon): < 10 nM
- GI50 (LOX IMVI melanoma): < 10 nM
- TGI (LOX IMVI melanoma): < 10 nM
- GI50 (SN12C renal): < 10 nM
- TGI (SN12C renal): < 10 nM
- GI50 (A498 renal): 16.9 nM
- TGI (A498 renal): 67.9 nM
- GI50 (SNB-75 CNS): < 10 nM
- TGI (SNB-75 CNS): < 10 nM
- GI50 (SK-MEL-5 melanoma): < 10 nM
- TGI (SK-MEL-5 melanoma): < 10 nM
- GI50 (MOLT-4 leukemia): < 10 nM
- TGI (MOLT-4 leukemia): < 10 nM
- GI50 (PC-3 prostate): < 10 nM
- TGI (PC-3 prostate): < 10 nM
- GI50 (SF-268 CNS): < 10 nM
- TGI (SF-268 CNS): < 10 nM
- GI50 (MDA-MB-435 melanoma): < 10 nM
- TGI (MDA-MB-435 melanoma): < 10 nM
- GI50 (SK-MEL-28 melanoma): < 10 nM
- TGI (SK-MEL-28 melanoma): < 10 nM
- GI50 (HOP-62 NSCLC): < 10 nM
- TGI (HOP-62 NSCLC): < 10 nM
- GI50 (HS 578T breast): < 10 nM
- TGI (HS 578T breast): < 10 nM
- GI50 (NCI-H23 lung): < 10 nM
- TGI (NCI-H23 lung): < 10 nM
- GI50 (NCI-H522 lung): < 10 nM
- TGI (NCI-H522 lung): < 10 nM
- GI50 (NCI-H322M lung): < 10 nM
- TGI (NCI-H322M lung): < 10 nM
- GI50 (HT29 colon): < 10 nM
- TGI (HT29 colon): < 10 nM
- GI50 (HL-60(TB) leukemia): < 10 nM
- TGI (HL-60(TB) leukemia): < 10 nM
- GI50 (OVCAR-3 ovarian): < 10 nM
- TGI (OVCAR-3 ovarian): < 10 nM
- GI50 (SK-OV-3 ovarian): < 10 nM
- TGI (SK-OV-3 ovarian): < 10 nM
- GI50 (NCI/ADR-RES ovarian): < 10 nM
- TGI (NCI/ADR-RES ovarian): < 10 nM
- GI50 (RXF 393 renal): < 10 nM
- TGI (RXF 393 renal): < 10 nM
- GI50 (MDA-MB-468 breast): < 10 nM
- TGI (MDA-MB-468 breast): < 10 nM
- GI50 (DU-145 prostate): < 10 nM
- TGI (DU-145 prostate): < 10 nM
- GI50 (SNB-19 CNS): < 10 nM
- TGI (SNB-19 CNS): < 10 nM
- GI50 (M14 melanoma): < 10 nM
- TGI (M14 melanoma): < 10 nM
- GI50 (ACHN renal): < 10 nM
- TGI (ACHN renal): < 10 nM
- GI50 (NCI-H460 NSCLC): < 10 nM
- TGI (NCI-H460 NSCLC): 11.7 nM
- GI50 (MCF7 breast): < 10 nM
- TGI (MCF7 breast): < 10 nM
- GI50 (COLO 205 colon): < 10 nM
- TGI (COLO 205 colon): < 10 nM
- GI50 (U251 glioblastoma): < 10 nM
- TGI (U251 glioblastoma): < 10 nM
- GI50 (BT-549 breast): < 10 nM
- TGI (BT-549 breast): < 10 nM
- GI50 (TK-10 renal): < 10 nM
- TGI (TK-10 renal): < 10 nM
- GI50 (OVCAR-4 ovarian): < 10 nM
- TGI (OVCAR-4 ovarian): < 10 nM
- GI50 (A549 NSCLC): < 10 nM
- TGI (A549 NSCLC): 10.8 nM
- GI50 (CAKI-1 renal): < 10 nM
- TGI (CAKI-1 renal): < 10 nM
- GI50 (IGROV1 ovarian): < 10 nM
- TGI (IGROV1 ovarian): < 10 nM
- GI50 (SF-539 CNS): < 10 nM
- TGI (SF-539 CNS): < 10 nM
- GI50 (T-47D breast): < 10 nM
- TGI (T-47D breast): < 10 nM
- GI50 (EKVX NSCLC): < 10 nM
- TGI (EKVX NSCLC): < 10 nM
- GI50 (NCI-H226 lung): 60.2 nM
- TGI (NCI-H226 lung): > 100000 nM
- GI50 (HOP-92 NSCLC): < 10 nM
- TGI (HOP-92 NSCLC): 24 nM
- GI50 (MALME-3M melanoma): < 10 nM
- TGI (MALME-3M melanoma): 13.9 nM
- GI50 (RPMI-8226 leukemia): < 10 nM
- TGI (RPMI-8226 leukemia): < 10 nM
- GI50 (HCT-15 colon): < 10 nM
- TGI (HCT-15 colon): < 10 nM
- GI50 (SF-295 CNS): < 10 nM
- TGI (SF-295 CNS): < 10 nM
- GI50 (OVCAR-8 ovarian): < 10 nM
- TGI (OVCAR-8 ovarian): < 10 nM
- GI50 (HCT-116 colon): < 10 nM
- TGI (HCT-116 colon): < 10 nM
